Earlier results, collected in US20080085301A1, “Method for transdermal administration of antimicrobial medications” (priority 2005, published 2008).

System: Streptococcus pneumoniae
Conditions: based on Streptococcus pneumoniae; in vitro

Structure (SMILES)	Approximate MIC [mg/L]
CN[C@H](CC(C)C)C(=O)N[C@H]1C(=O)N[C@@H](CC(N)=O)C(=O)N[C@H]2C(=O)N[C@H]3C(=O)N[C@H](C(=O)N[C@H](C(=O)O)c4cc(O)cc(O)c4-c4cc3ccc4O)[C@H](O)c3ccc(c(Cl)c3)Oc3cc2cc(c3O[C@@H]2O[C@H](CO)[C@@H](O)[C@H](O)[C@H]2O[C@H]2C[C@](C)(N)[C@H](O)[C@H](C)O2)Oc2ccc(cc2Cl)[C@H]1O [Vancomycin]	~16
N[C@@H]1CON=C1O [Cycloserine]	~32
CCCCCCCCCC(=O)N[C@@H](Cc1c[nH]c2ccccc12)C(=O)N[C@H](CC(N)=O)C(=O)N[C@@H](CC(=O)O)C(=O)N[C@@H]1C(=O)NCC(=O)N[C@@H](CCCN)C(=O)N[C@@H](CC(=O)O)C(=O)N[C@H](C)C(=O)N[C@@H](CC(=O)O)C(=O)NCC(=O)N[C@H](CO)C(=O)N[C@@H]([C@H](C)CC(=O)O)C(=O)N[C@@H](CC(=O)c2ccccc2N)C(=O)O[C@@H]1C [Daptomycin]	~0.5
O=C(N[C@H](CO)[C@H](O)c1ccc([N+](=O)[O-])cc1)C(Cl)Cl [Chloramphenicol]	~4

Results, then the compound that gave them:

Approximate MIC [mg/L]	Structure (SMILES)
~0.5	CO[C@H]1/C=C/O[C@@]2(C)Oc3c(C)c(O)c4c(O)c(c(/C=N/N5CCN(C)CC5)c(O)c4c3C2=O)NC(=O)/C(C)=C\C=C\[C@H](C)[C@H](O)[C@@H](C)[C@@H](O)[C@@H](C)[C@H](OC(C)=O)[C@@H]1C [Rifampin]
~2	[H]/N=C(/N)N[C@H]1[C@H](O)[C@@H](O)[C@H](O[C@@H]2O[C@@H](C)[C@](O)(C=O)[C@H]2O[C@@H]2O[C@@H](CO)[C@H](O)[C@@H](O)[C@@H]2NC)[C@@H](N/C(N)=N\[H])[C@@H]1O [Streptomycin]
~2	CC(=O)NC[C@H]1CN(c2ccc(N3CCOCC3)c(F)c2)C(=O)O1 [Linezolid]
~1	C[C@@H](O)[C@H]1C(=O)N2C(C(=O)O)=C(S[C@@H]3CN[C@H](C(=O)N(C)C)C3)[C@H](C)[C@H]12 [Meropenem]
